Values joined by “and” are separate entries in the source; they are usually repeats but may differ in a detail not shown here. Identical values can stand only once.
Experiments:
[1] = tested on: human gastric cancer NUGC-3 xenograft; experiment: In vivo efficacy study in human gastric cancer NUGC-3 xenograft mouse model; set-up: species or system NUNU mice; conditions: mice; for Tumor volume (mm^3) (at 19 days): Mean ± SEM
Description: 1. Experimental purpose: To test the in vivo anti-tumor activity of compounds in the subcutaneous human gastric cancer NUGC-3 xenograft model in female NUNU mice. 2. Experimental materials: Animals: 6 to 8 weeks old female NUNU mice; Reagents:
Cpd-A vehicle: 0.2% HPC, 0.5% Tween80 in water (w/v/v); Cpd-2 vehicle: 5% DMSO/10% Solutol HS 15/85% pH 4.65 ± 0.10 acetate buffer.
(§1) Cell culture: NUGC-3 cells were cultured in RPMI-1640 medium containing 10% FBS.
Molding and grouping: NUGC-3 cells in the exponential growth phase (5 × 10^6) were harvested, resuspended in 0.2 mL of PBS and Matrigel (1:1), and then inoculated subcutaneously into the right flank of NUNU mice to establish a subcutaneous xenograft model. Mice were observed daily for healthy status and tumor growth after cell inoculation. On the 5th day after inoculation, 36 animals were selected, grouped, and the tumor volume of the animals in the group was approximately 150.0 mm^3. The study was divided into 6 groups, with 6 mice in each group, and the administration was performed on the same day (see Table 10).
4. Experimental design: Table 10 is the grouping and administration information for the efficacy experiment. Mice in the G1 group were orally administered vehicle control (5% DMSO/10% Solutol HS 15/85% pH 4.65 ± 0.10 acetate buffer) once a day for a total of 19 days. Mice in the G2 group were orally administered Cpd-A once a day at a dose of 50 mg/kg for a total of 19 days. Mice in the G3 group were orally administered Cpd-A once a day at a dose of 100 mg/kg for a total of 19 days. Mice in the G4 group were orally administered Cpd-2 once a day at a dose of 25 mg/kg for a total of 19 days. Mice in the G5 group were orally administered Cpd-2 once a day at a dose of 50 mg/kg for a total of 19 days. Mice in the G6 group were orally administered Cpd-2 once a day at a dose of 100 mg/kg for a total of 19 days. Table 10. In vivo efficacy study design of NUGC-3 xenograft mouse model
(§2) Experimental observation: The health status and mortality of the animals were monitored daily. Routine checks included observing the effect of tumor growth and drug treatment on animals' normal behavior such as mobility, food and water consumption, body weight gain/loss, eye/hair matting and any other abnormal effect. The number of deaths and side effects of the animals in the group were recorded based on the number of the animals in each group. Clinical symptoms observed during the trial were recorded in the raw data. Tumor volume calculation formula: Tumor volume (mm^3) = 0.5 × (tumor long diameter × tumor short diameter^2). During the research process, the entire administration process as well as tumor and body weight measurements were conducted in a Laminar Flow Cabinet.
(§3) Statistical analysis: Tumor volume and animal body weight results are expressed in Mean ± SEM. Tumor volumes between different groups were statistically compared and analyzed. All statistical analyses were completed in GraphPad Prism 8.0. The one-way ANOVA method was used to compare whether there was a significant difference in tumor volume or tumor weight between groups, where p ≥ 0.05 was considered as having no significant difference, p < 0.05 was considered as having a significant difference, and p < 0.001 was considered as having an extremely significant difference.

[2] = tested on: human gastric cancer NUGC-3 xenograft; experiment: In vivo efficacy study in human gastric cancer NUGC-3 xenograft rat model; set-up: species or system B-Rag2/IL2rg KO SD rats; conditions: QD × 28 days, p.o., rats
Description: 1. Experimental purpose: To test the in vivo anti-tumor activity of compounds in the subcutaneous human gastric cancer NUGC-3 xenograft model in female B-Rag2/IL2rg KO SD rats. 2. Experimental materials: Animals: 7 to 9 weeks old female B-Rag2/IL2rg KO SD rats; Reagents:
Vehicle: 5% DMSO/10% Solutol HS 15/85% pH 4.65 ± 0.10 acetate buffer;
as §1
Molding and grouping: NUGC-3 cells in the exponential growth phase (1 × 10^7) were harvested, resuspended in 0.2 mL of PBS and Matrigel (1:1), and then inoculated subcutaneously into the right flank of B-Rag2/IL2rg KO SD rats to establish a subcutaneous xenograft model. Rats were observed daily for healthy status and tumor growth after cell inoculation. On the 10th day after inoculation, 24 animals were selected, grouped, and the tumor volume of the animals in the group was approximately 199.0 mm^3. The study was divided into 4 groups, with 6 rats in each group, and the administration was performed on the same day (see Table 12).
4. Experimental design: Table 12 is the grouping and administration information for the efficacy study. Rats in the G1 group were orally administered vehicle control (5% DMSO/10% Solutol HS 15/85% pH 4.65 ± 0.10 acetate buffer) once a day for a total of 28 days. Rats in the G2 group were orally administered Cpd-2 once a day at a dose of 6.25 mg/kg for a total of 28 days. Rats in the G3 group were orally administered Cpd-2 once a day at a dose of 12.5 mg/kg for a total of 28 days. Rats in the G4 group were orally administered Cpd-2 once a day at a dose of 25 mg/kg for a total of 28 days. Table 12. In vivo efficacy study design of NUGC-3 xenograft rat model
as §2, with “included” for “included observing”
Data processing: Percentage of tumor growth inhibition TGITV (%): TGITV % = (1 - ΔT/ΔC) × 100%; Wherein ΔC is the tumor volume Ct - C0 for the control group, C0 is the average tumor volume of the control group at the time of grouping, and Ct is the average tumor volume of the control group after treatment; ΔT is the tumor volume Tt - T0 for the treatment group, T0 is the average tumor volume of the treatment group at the time of grouping, and Tt is the average tumor volume of the treatment group after treatment.
as §3, with “https://d2k.bio/Efficacy/Invivo.” for “GraphPad Prism 8.0.”, “wilcox.test nominal” for “one-way ANOVA”, “0.01” for “0.001”

## [2H]C([2H])([2H])Oc1nc(C(=O)NS(C)(=O)=O)ccc1NCC#Cc1cc2c(N[C@@H]3CCN(C)C[C@@H]3F)cccn2c1CC(F)(F)F [Cpd-2, 5-((3-(8-(((3S,4R)-3-Fluoro-1-methylpiperidin-4-yl)amino)-3-(2,2,2-trifluoroethyl)indolizin-2-yl)prop-2-yn-1-yl)amino)-6-(methoxy-d3)-N-(methylsulfonyl)picolinamide]
[1]; 25 mg/kg PO QD*19 Days
  TGI (%) (at 19 days): 65.1%
  Tumor volume (mm^3) (at 19 days): 615.1 mm^3 and 615.1 ± 157.6 mm^3
[1]; 50 mg/kg PO QD*19 Days
  TGI (%) (at 19 days): 96.1%
  Tumor volume (mm^3) (at 19 days): 202.2 mm^3 and 202.2 ± 57.9 mm^3
[1]; 100 mg/kg PO QD*19 Days
  TGI (%) (at 19 days): 103.6%
  Tumor volume (mm^3) (at 19 days): 102.5 mm^3 and 102.5 ± 42.1 mm^3
[2]; 6.25 mg/kg
  TGITV (%) (at 28 days): 92.9%
  Tumor volume (mm^3) (Mean ± SEM) (at 28 days): 395.0 mm^3 and 395.0 ± 63.1 mm^3
[2]; 12.5 mg/kg
  TGITV (%) (at 28 days): 102.9%
  Tumor volume (mm^3) (Mean ± SEM) (at 28 days): 119.2 mm^3 and 119.2 ± 10.2 mm^3
[2]; 25 mg/kg
  TGITV (%) (at 28 days): 104.7%
  Tumor volume (mm^3) (Mean ± SEM) (at 28 days): 70.1 mm^3 and 70.1 ± 14.9 mm^3
